Patent publication EP3290412A1, “HIV-1 NUCLEOCAPSID INHIBITORS” (Università degli Studi di Siena, priority 2016, dated 2018)
Read-outs that look alike come from different tables or passages of the source.

Key:
NC(11-55) = NC(11-55) (Human immunodeficiency virus type 1, UniProt P12493); assay: NC inhibition assay (NC-induced cTAR DNA destabilization, fluorescence); assay type: biochemical, HIV-1; conditions: for inhibition at 100 µM: single point screening, positive = >25% inhibition at 100µM
Summary of the method: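 Doubly labelled cTAR (0.1 µM, Alexa488/Dabcyl) pre-complexed with 1 µM Zn-loaded NC(11-55) for 15 min, then compound added for a further 15 min; run at 20 °C in Tris-HCl pH 7.5, 30 mM NaCl, 0.2 mM MgCl2. Fluorescence read at ex 480/em 520 nm. IC50 taken from dose-response fit of % inhibition of NC-induced fluorescence increase.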

[1] = molecular target: T1, full length (1-55) HIV-1 NCp7 (Human immunodeficiency virus type 1 group M subtype B, UniProt P12493); assay: Electromobility Shift Assay (EMSA), competition for ssDNA binding; conditions: NCp7 300 nM, M13mp18 ssDNA; positive = >25% inhibition at 100µM
T1 construct: recombinant full length (1-55) HIV-1 NCp7 proteins; made in house
Summary of the method: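 Recombinant NL4-3 NCp7 (300 nM in the pre-mix) was combined with compound in 20 mM Tris-HCl pH 7.4, 2 mM MgCl2, 100 mM NaCl, 1 mM DTT, then M13mp18 ssDNA was added for 25 min at 37 °C. Complexes were run on 1% agarose/0.5x TBE and stained with SybrGold. IC50 is the concentration at which bound ssDNA migrated 50% of the bound–unbound distance (triplicate).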

[2] = test system: HIV-1 reference strain NL4-3; assay: MonoCycle assay (TZM-bl cells); assay type: cell-based
Protocol: MonoCycle assay is a cell based assay allowing the evaluation of antiviral activity of HIV-1 inhibitors targeting the early steps of HIV-1 life cycle such as entry, uncoating of viral particles, reverse transcription and integration. The assay consists in the infection of TZM-bl cells (20,000/well) with the HIV-1 reference strain NL4-3 in presence of serial five-fold dilutions of the investigational inhibitors. After 48 hours, cells were lysed adding 40 µl of Glo Lysis Buffer (Promega) to each well for 5 minutes, then 40 µl of Brighy-Glo Luciferase Reagent (Promega) were added to each well for relative luminescence units (RLU) counting using Glo-Max Multi Detection System (Promega). RLU values from each well were elaborated using the GraphPad v5.0 software to calculate the IC50 of each compound.

[3] = Human immunodeficiency virus 1, NL43, TZM-bl, 48 h, read-out: Mono Cycle IC50 nM
[4] = Human immunodeficiency virus 1, NL43, TZM-bl cells, NL4-3, 48 hours, read-out: Mono Cycle IC50

Compound | IC50 (NC(11-55)) | inhibition at 100 µM (NC(11-55)) | EMSA screening results [1] | IC50 [2, 3] | IC50 [2, 4]
C[C@@H](NC(=O)c1nc(-c2ccc(N)cn2)nc(O)c1O)C1CCCCC1 [Compound 20, (R)-2-(5-aminopyridin-2-yl)-N-(1-cyclohexylethyl)-5,6-dihydroxypyrimidine-4-carboxamide] | 3 µM | > 25% | Positive (A compound showing >25% inhibition when tested at 100µM concentration is considered as "positive") | 2110 nM | –
C[C@@H](NC(=O)c1nc(-c2ccc(C(=O)OCc3ccccc3)cn2)nc(O)c1O)C1CCCCC1 [Compound 21, benzyl (R)-6-(4-((1-cyclohexylethyl)carbamoyl)-5,6-dihydroxypyrimidin-2-yl)nicotinate] | 10 µM | > 25% | Positive (A compound showing >25% inhibition when tested at 100µM concentration is considered as "positive") | > 50000 nM | –
C[C@@H](NC(=O)c1nc(-c2ccc3ccccc3n2)nc(O)c1O)C1CCCCC1 [Compound 22, (R)-N-(1-cyclohexylethyl)-5,6-dihydroxy-2-(quinolin-2-yl)pyrimidine-4-carboxamide] | 3 µM | > 25% | Positive (A compound showing >25% inhibition when tested at 100µM concentration is considered as "positive") | 100000 nM | –
Cc1cccnc1-c1nc(O)c(O)c(C(=O)N[C@H](C)C2CCCCC2)n1 [Compound 23, (R)-N-(1-cyclohexylethyl)-5,6-dihydroxy-2-(3-methylpyridin-2-yl)pyrimidine-4-carboxamide] | 20.5 µM | > 25% | Positive (A compound showing >25% inhibition when tested at 100µM concentration is considered as "positive") | 88500 nM | –
O=C(NC1(C2CCCCC2)CC1)c1nc(-c2ccccn2)nc(O)c1O [Compound 24, N-(1-cyclohexylcyclopropyl)-5,6-dihydroxy-2-(pyridin-2-yl)pyrimidine-4-carboxamide] | 22.5 µM | > 25% | Positive (A compound showing >25% inhibition when tested at 100µM concentration is considered as "positive") | 3610 nM | –
C[C@@H](NC(=O)c1nc(-c2cc3ccccc3cn2)nc(O)c1O)C1CCCCC1 [Compound 25, (R)-N-(1-cyclohexylethyl)-5,6-dihydroxy-2-(isoquinolin-3-yl)pyrimidine-4-carboxamide] | 3 µM | > 25% | Positive (A compound showing >25% inhibition when tested at 100µM concentration is considered as "positive") | 64000 nM | –
C[C@@H](NC(=O)c1nc(-c2cc(Cl)ccn2)nc(O)c1O)C1CCCCC1 [Compound 26, (R)-2-(4-chloropyridin-2-yl)-N-(1-cyclohexylethyl)-5,6-dihydroxypyrimidine-4-carboxamide] | 1.5 µM | > 25% | Positive (A compound showing >25% inhibition when tested at 100µM concentration is considered as "positive") | 17600 nM | –
C[C@@H](NC(=O)c1nc(-c2cc(C(F)(F)F)ccn2)nc(O)c1O)C1CCCCC1 [Compound 27, (R)-N-(1-cyclohexylethyl)-5,6-dihydroxy-2-(4-(trifluoromethyl)pyridin-2-yl)pyrimidine-4-carboxamide] | 12.5 µM | > 25% | Positive (A compound showing >25% inhibition when tested at 100µM concentration is considered as "positive") | > 50000 nM | –
COc1ccnc(-c2nc(O)c(O)c(C(=O)N[C@H](C)C3CCCCC3)n2)c1 [Compound 28, (R)-N-(1-cyclohexylethyl)-5,6-dihydroxy-2-(4-methoxypyridin-2-yl)pyrimidine-4-carboxamide] | 22 µM | > 25% | Positive (A compound showing >25% inhibition when tested at 100µM concentration is considered as "positive") | 34300 nM | –
C[C@@H](NC(=O)c1nc(-c2ncccc2C(F)(F)F)nc(O)c1O)C1CCCCC1 [Compound 30, (R)-N-(1-cyclohexylethyl)-5,6-dihydroxy-2-(3-(trifluoromethyl)pyridin-2-yl)pyrimidine-4-carboxamide] | – | > 25% | Positive (A compound showing >25% inhibition when tested at 100µM concentration is considered as "positive") | – | > 50000 nM
C[C@@H](NC(=O)c1nc(-c2nccc3ccccc23)nc(O)c1O)C1CCCCC1 [Compound 31, (R)-N-(1-cyclohexylethyl)-5,6-dihydroxy-2-(isoquinolin-1-yl)pyrimidine-4-carboxamide] | 3.5 µM | > 25% | Positive (A compound showing >25% inhibition when tested at 100µM concentration is considered as "positive") | > 50000 nM | –
COc1ccc(-c2nc(O)c(O)c(C(=O)N[C@H](C)C3CCCCC3)n2)nc1 [Compound 32, (R)-N-(1-cyclohexylethyl)-5,6-dihydroxy-2-(5-methoxypyridin-2-yl)pyrimidine-4-carboxamide] | 45 µM | > 25% | Positive (A compound showing >25% inhibition when tested at 100µM concentration is considered as "positive") | 8260 nM | –
C[C@@H](NC(=O)c1nc(-c2ncccc2Cl)nc(O)c1O)C1CCCCC1 [Compound 33, (R)-2-(3-chloropyridin-2-yl)-N-(1-cyclohexylethyl)-5,6-dihydroxypyrimidine-4-carboxamide] | 18 µM | > 25% | Positive (A compound showing >25% inhibition when tested at 100µM concentration is considered as "positive") | > 50000 nM | –
C[C@@H](NC(=O)c1nc(-c2cccc(Cl)n2)nc(O)c1O)C1CCCCC1 [Compound 34, (R)-2-(6-chloropyridin-2-yl)-N-(1-cyclohexylethyl)-5,6-dihydroxypyrimidine-4-carboxamide] | 47.5 µM | > 25% | Negative | 14500 nM | –
C[C@@H](NC(=O)c1nc(-c2cc(OCc3ccccc3)ccn2)nc(O)c1O)C1CCCCC1 [Compound 35, (R)-2-(4-(benzyloxy)pyridin-2-yl)-N-(1-cyclohexylethyl)-5,6-dihydroxypyrimidine-4-carboxamide] | – | > 25% | Positive (A compound showing >25% inhibition when tested at 100µM concentration is considered as "positive") | – | > 50000 nM
C[C@@H](NC(=O)c1nc(-c2ccc(C(F)(F)F)cn2)nc(O)c1O)C1CCCCC1 [Compound 36, (R)-N-(1-cyclohexylethyl)-5,6-dihydroxy-2-(5-(trifluoromethyl)pyridin-2-yl)pyrimidine-4-carboxamide] | 22.5 µM | > 25% | Positive (A compound showing >25% inhibition when tested at 100µM concentration is considered as "positive") | 45400 nM | –
COc1cccc(-c2nc(O)c(O)c(C(=O)N[C@H](C)C3CCCCC3)n2)n1 [Compound 37, (R)-N-(1-cyclohexylethyl)-5,6-dihydroxy-2-(6-methoxypyridin-2-yl)pyrimidine-4-carboxamide] | 29 µM | > 25% | Positive (A compound showing >25% inhibition when tested at 100µM concentration is considered as "positive") | 6910 nM | –
C[C@H](NC(=O)c1nc(-c2ccccn2)nc(O)c1O)C1CCCCC1 [Compound 38, (S)-N-(1-cyclohexylethyl)-5,6-dihydroxy-2-(pyridin-2-yl)pyrimidine-4-carboxamide] | 46.5 µM | > 25% | Positive (A compound showing >25% inhibition when tested at 100µM concentration is considered as "positive") | 11200 nM | –
Cc1cccnc1-c1nc(O)c(O)c(C(=O)N[C@@H](C)C2CCCCC2)n1 [Compound 39, (S)-N-(1-cyclohexylethyl)-5,6-dihydroxy-2-(3-methylpyridin-2-yl)pyrimidine-4-carboxamide] | 27 µM | > 25% | Negative | > 50000 nM | –
C[C@@H](NC(=O)c1nc(-c2cccc(C(F)(F)F)n2)nc(O)c1O)C1CCCCC1 [Compound 44, (R)-N-(1-cyclohexylethyl)-5,6-dihydroxy-2-(6-(trifluoromethyl)pyridin-2-yl)pyrimidine-4-carboxamide] | – | > 25% | Positive (A compound showing >25% inhibition when tested at 100µM concentration is considered as "positive") | – | > 50000 nM
